Among the data in patent publication US5132302A, “Use of aromatic aminoalkoxy derivatives for the treatment of troubles of the cerebrovascular system” (priority 1989, dated 1992) are IC50 values, retold here.

In one assay the test system is isolated balisar artery of a rabbit. The assay can be described thus: test of contractions of the isolated balisar artery of a rabbit in a hypopotassic medium (contraction induced by KC1). The note with it: Oryctolagus cuniculus, read-out: IC50 (concentrations which reduce by 50% the amplitude of the contraction induced by KC1). Type of assay: cell-based. As for the experimental part:
The protocol of this test is the following. The rabbit is anaesthetized with pentobarbital at a dose of 30 mg/kg then sacrificed by exsanguination and decapitated at the level of the third cervical vertebra. The balisar artery is removed (1.5 cm) between the vertebral arteries and the polygon of Willis. The balisar artery is then cut in a spiral at an angle of 45° . It is fixed by means of a curved needle between an L shaped glass carrier and a displacement sensor (Grass, type FT03). A mechanical tension of 500 mg is applied to the vessel before letting it reach its balance state.
For a period of an hour, the vessel is rinsed every twenty minutes until a stable level is obtained.
The tonic contraction consecutive to depolarization caused by KC1 is dependent on the calcic movements for it is abolished by the suppression of calcium in the survival medium.
On to `COc1cc(F)c(OC)c(OCCN2CCCCC2)c1C(O)CCc1ccc(O)cc1` (stereo not shown) [compound 72], for which the IC50 is 3 nM.

The assay is the same for the next values; noted with them: Oryctolagus cuniculus; isolated rabbit balisar artery; KC1 at 35 mmoles; read-out: IC50 (concentrations which reduce by 50% the amplitude of the contraction induced by KC1).
Turning to `CCN(CC)CCOc1c(OC)c(Cl)cc(OC)c1C(O)CCc1ccc(O)cc1` (stereo not shown) [compound 70], the IC50 stood at 7.2 nM.

`COc1ccc(OC)c(C(O)CCc2ccccc2)c1OCCN1CCCCC1` (stereo not shown) [compound 3]: the IC50 was 400 nM.

With `COc1ccc(OC)c(C(O)CCc2ccc(O)cc2)c1OCCN1CCCCC1` (stereo not shown) [compound 10], the IC50 is 26 nM.

On to `COc1cc([N+](=O)[O-])c(OC)c(C(O)CCc2ccc(O)cc2)c1OCCN1CCCCC1` (stereo not shown) [compound 74], for which the IC50 was found to be 1.4 nM.

In the case of `COc1cc(Cl)c(OC)c(OCCN2CCCCC2)c1C(O)CCc1ccc(O)cc1` (stereo not shown) [compound 69], the IC50 turned out to be 2.3 nM.

`COc1cc(Cl)c(OC)c(OCCN(C(C)C)C(C)C)c1C(O)CCc1ccc(O)cc1` (stereo not shown) [compound 71]: the IC50 amounted to 9.8 nM.
